assay: method code SF-HPLC, from DOI: 10.1016/0005-2728(88)90027-8, PMID: 3196713; conditions: pH 2.2

**Q.** For O=C(Nc1ccccc1Cl)c1ccccc1O, which logD is on record?
**A.** 4.35

**Q.** Which logD does the source give for Cc1ccccc1NC(=O)c1cc(Cl)ccc1O here?
**A.** 4.21

**Q.** With O=C(Nc1ccc(F)cc1)c1cc(Cl)cc(Cl)c1O as the molecule, how does the logD read?
**A.** 4.76

assay: not given; conditions: not given

**Q.** With O=C(Nc1ccc(Cl)cc1[N+](=O)[O-])c1cc(Cl)cc(Cl)c1O as the molecule, how does the logP read?
**A.** 5.08

**Q.** With O=C(Nc1ccc(F)cc1F)c1cc(Br)cc(Br)c1O as the molecule, how does the logP read?
**A.** 4.99

**Q.** Which logP does the source give for Cc1cc([N+](=O)[O-])ccc1NC(=O)c1cc(Cl)cc(Cl)c1O here?
**A.** 4.51

**Q.** With Cc1cc(Cl)ccc1NC(=O)c1ccccc1O as the molecule, how does the logP read?
**A.** 5.18

**Q.** Which logP does the source give for O=C(Nc1ccc(F)cc1F)c1cc(Cl)cc(Cl)c1O here?
**A.** 4.55

**Q.** Which logP does the source give for Cc1cc(Cl)ccc1NC(=O)c1cc(F)ccc1O here?
**A.** 4.89

**Q.** With O=C(Nc1ccc(Cl)cc1[N+](=O)[O-])c1ccccc1O as the molecule, how does the logP read?
**A.** 4.02

**Q.** Which logP does the source give for Cc1cc(Br)ccc1NC(=O)c1cc(F)ccc1O here?
**A.** 5.15

**Q.** With O=C(Nc1ccc(Cl)cc1Cl)c1ccccc1O as the molecule, how does the logP read?
**A.** 5.49

**Q.** Which logP does the source give for O=C(Nc1ccccc1[N+](=O)[O-])c1ccccc1O here?
**A.** 2.87

**Q.** With O=C(Nc1ccccc1)c1cc(Cl)cc(Cl)c1O as the molecule, how does the logP read?
**A.** 4.01

**Q.** For O=C(Nc1ccccc1)c1cc(Cl)ccc1O, which logP is on record?
**A.** 3.98

**Q.** With O=C(Nc1ccc(Cl)cc1)c1cc(Br)ccc1O as the molecule, how does the logP read?
**A.** 5.02

**Q.** Which logP does the source give for O=C(Nc1ccc(Br)cc1)c1ccccc1O here?
**A.** 4.51

**Q.** Which logP does the source give for O=C(Nc1ccc(Cl)cc1)c1ccccc1O here?
**A.** 4.29

**Q.** For O=C(Nc1ccc(Cl)cc1)c1cc(Cl)cc(Cl)c1O, which logP is on record?
**A.** 5.15

**Q.** With O=C(Nc1ccc(Cl)cc1[N+](=O)[O-])c1cc(Br)cc(Br)c1O as the molecule, how does the logP read?
**A.** 5.05

Source: the SangsterLogP compilation
